The source of these data is patent publication US20250353891A1 (MEDIMMUNE LIMITED, priority 2022, published 2025).

The target in assay [1] is human GLP-1 receptor (hGLP-1R) (Homo sapiens, UniProt P43220). The experiment in a line: cAMP production (HTRF) in CHO cells expressing hGLP-1R. In kind it is cell-based. Set-up: expressed in transfected cells. The settings on record: for EC50: geometric mean, read-out: hGLP-1R EC50; for % Relative Potency Ratio: % GLP-1R activity relative to GLP-1 / % GlucR activity relative to glucagon. An outline of the steps:
(§1)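 Read-out: HTRF cAMP (anti-cAMP cryptate donor, cAMP-d2 acceptor in conjugate/lysis buffer), converted to % Delta F and fitted by 4-parameter logistic for EC50. Cell densities were 1×10^5 cells/mL (hGLP-1R) or 2×10^5 cells/mL (hGCGR). Stimulation lasted 30 min at room temperature.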
On the technique in general: Cyclic AMP is a second messenger, typically raised through Gs and lowered through Gi signalling.

Assay [2] addresses human glucagon receptor (hGCGR) (Homo sapiens, UniProt P47871). In words: cAMP production (HTRF) in CHO cells expressing hGCGR. In kind it is cell-based. Set-up: expressed in transfected cells. The settings on record: geometric mean, read-out: hGluc-R EC50. In short, it runs like this:
as §1

Where [3] appears, read: Table 6, peptides modified at position 17, cAMP in CHO hGLP-1R cells.
[4] abbreviates: Table 6, peptides modified at position 17, cAMP in CHO hGCGR cells.

Molecules are shown by their SMILES. Read-outs that look alike come from different tables or passages of the source. Starred links: 1 amine or outer side, 2 acyl side, 3 side chain; linkers in the order of their positions; H or OH if unused. Non-standard residues stand in square brackets, D forms with d. Residues, ends and D or L forms follow the SMILES beside them. Groups on a side chain read outwards from the residue. *: point of attachment. C20 diacid = O=C(O)CCCCCCCCCCCCCCCCCCC(=O)*; C18 diacid = O=C(O)CCCCCCCCCCCCCCCCC(=O)*; γGlu = O=C(O)[C@H](CCC(=O)[*:2])N[*:1]; Stearoyl = CCCCCCCCCCCCCCCCCC(=O)*; αMeF = C[C@](N)(Cc1ccccc1)C(=O)O; PEG2 = NCCOCCOCCC(=O)O; AEEA = NCCOCCOCC(=O)O; Aib = CC(C)(N)C(=O)O

One may read the EC50 as the midpoint of the concentration-response curve.

Chain of human glucagon receptor (hGCGR) (P47871 26-477): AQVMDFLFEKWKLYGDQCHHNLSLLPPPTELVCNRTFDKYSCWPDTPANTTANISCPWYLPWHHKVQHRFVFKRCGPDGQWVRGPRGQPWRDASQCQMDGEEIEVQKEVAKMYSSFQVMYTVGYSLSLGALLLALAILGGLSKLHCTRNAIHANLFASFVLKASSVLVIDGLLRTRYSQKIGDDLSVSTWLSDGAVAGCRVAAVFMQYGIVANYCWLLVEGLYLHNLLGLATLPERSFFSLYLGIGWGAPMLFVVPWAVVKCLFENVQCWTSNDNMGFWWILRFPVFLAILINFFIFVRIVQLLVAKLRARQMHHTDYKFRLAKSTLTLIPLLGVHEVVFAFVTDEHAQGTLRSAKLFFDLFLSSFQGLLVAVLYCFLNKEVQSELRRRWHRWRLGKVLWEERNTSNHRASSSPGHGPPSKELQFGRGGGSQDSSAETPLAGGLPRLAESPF
Chain of human GLP-1 receptor (hGLP-1R) (P43220 24-463): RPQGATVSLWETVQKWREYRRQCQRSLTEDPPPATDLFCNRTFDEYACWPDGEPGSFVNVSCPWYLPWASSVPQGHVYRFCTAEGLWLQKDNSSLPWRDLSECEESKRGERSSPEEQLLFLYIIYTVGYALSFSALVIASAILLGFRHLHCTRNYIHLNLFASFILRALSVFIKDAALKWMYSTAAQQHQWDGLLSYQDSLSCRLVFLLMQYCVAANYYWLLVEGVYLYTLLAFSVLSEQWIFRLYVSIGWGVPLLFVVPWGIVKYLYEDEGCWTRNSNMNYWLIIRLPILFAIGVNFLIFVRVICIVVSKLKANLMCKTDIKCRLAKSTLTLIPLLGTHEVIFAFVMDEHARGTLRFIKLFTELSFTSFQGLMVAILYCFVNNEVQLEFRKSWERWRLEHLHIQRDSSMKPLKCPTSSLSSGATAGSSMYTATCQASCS

For `CC(C)C[C@H](NC(=O)[C@H](Cc1c[nH]c2ccccc12)NC(=O)[C@H](C)NC(=O)[C@@H](NC(=O)[C@H](Cc1ccccc1)NC(=O)[C@H](CC(=O)O)NC(=O)[C@H](CCC(N)=O)NC(=O)[C@H](C)NC(=O)[C@H](CCCNC(=N)N)NC(=O)[C@H](CCCCNC(=O)COCCOCCNC(=O)COCCOCCNC(=O)CC[C@H](NC(=O)CC[C@H](NC(=O)CCCCCCCCCCCCCCCCC(=O)O)C(=O)O)C(=O)O)NC(=O)[C@@H](NC(=O)[C@H](CC(=O)O)NC(=O)[C@H](CC(C)C)NC(=O)[C@](C)(Cc1ccccc1)NC(=O)[C@H](CCCCN)NC(=O)[C@H](CO)NC(=O)[C@@H](NC(=O)[C@H](CC(=O)O)NC(=O)[C@H](CO)NC(=O)[C@@H](NC(=O)[C@H](Cc1ccccc1)NC(=O)[C@@H](NC(=O)CNC(=O)[C@H](CCC(N)=O)NC(=O)C(C)(C)NC(=O)[C@@H](N)Cc1c[nH]cn1)[C@@H](C)O)[C@@H](C)O)C(C)C)[C@@H](C)O)C(C)C)C(=O)N[C@@H](CCC(=O)O)C(=O)N[C@@H](C)C(=O)NC(C)(C)C(=O)NCC(=O)O` [Peptide 417] (H-H[Aib]QGTFTSDVSK[αMeF]LDTK([AEEA-AEEA-γGlu-γGlu-C18 diacid])RAQDFVAWLEA[Aib]G-OH; N-terminus assumed), the EC50 in assay [1] (setting [3]) came to 0.0339 nM; in assay [2] (setting [4]), 0.0164 nM. In assay [1] (Table 6), the “% Relative Potency Ratio” value is recorded as 1.0.
With `CC[C@H](C)[C@H](NC(=O)C(C)(C)NC(=O)[C@H](CCCCNC(=O)COCCOCCNC(=O)COCCOCCNC(=O)CC[C@H](NC(=O)CC[C@H](NC(=O)CCCCCCCCCCCCCCCCCCC(=O)O)C(=O)O)C(=O)O)NC(=O)[C@@H](NC(=O)[C@](C)(Cc1ccccc1)NC(=O)[C@H](CC(=O)O)NC(=O)[C@H](CCC(N)=O)NC(=O)[C@H](C)NC(=O)[C@H](C)NC(=O)[C@H](CCC(N)=O)NC(=O)[C@H](CO)NC(=O)[C@H](CC(=O)O)NC(=O)[C@H](CC(C)C)NC(=O)[C@](C)(Cc1ccccc1)NC(=O)[C@H](CCCCN)NC(=O)[C@H](CO)NC(=O)[C@@H](NC(=O)[C@H](CC(=O)O)NC(=O)[C@H](CO)NC(=O)[C@@H](NC(=O)[C@](C)(Cc1ccccc1)NC(=O)[C@H](CO)NC(=O)CNC(=O)[C@H](Cc1c[nH]cn1)NC(=O)C(C)(C)NC(=O)[C@@H](N)Cc1c[nH]cn1)[C@@H](C)O)C(C)C)C(C)C)C(=O)N[C@@H](C)C(=O)N[C@@H](CC(N)=O)C(=O)N[C@H](C(N)=O)[C@@H](C)O` [Peptide 384] (H-H[Aib]HGS[αMeF]TSDVSK[αMeF]LDSQAAQD[αMeF]VK([AEEA-AEEA-γGlu-γGlu-C20 diacid])[Aib]IANT-NH2; N-terminus assumed), the “% Relative Potency Ratio” value in assay [1] is 3.1. For the same compound, the EC50 came to 0.797 nM in assay [1] (cAMP, CHO cells, 0.1% BSA) and 1.24 nM in assay [2] (cAMP, CHO cells, 0.1% BSA).
Regarding `CCCCCCCCCCCCCCCCCC(=O)N[C@@H](CCC(=O)N[C@@H](CCC(=O)NCCOCCOCCC(=O)NCCOCCOCCC(=O)NCCCC[C@H](NC(=O)[C@H](CO)NC(=O)[C@H](CC(=O)O)NC(=O)[C@H](CC(C)C)NC(=O)C(C)(C)NC(=O)[C@H](CCCCN)NC(=O)[C@H](CO)NC(=O)[C@@H](NC(=O)[C@H](CC(=O)O)NC(=O)[C@H](CO)NC(=O)[C@@H](NC(=O)[C@](C)(Cc1ccccc1)NC(=O)[C@H](CO)NC(=O)CNC(=O)[C@H](CCC(N)=O)NC(=O)C(C)(C)NC(=O)[C@@H](N)Cc1c[nH]cn1)[C@@H](C)O)C(C)C)C(=O)N[C@@H](C)C(=O)N[C@@H](C)C(=O)N[C@@H](CCC(N)=O)C(=O)N[C@@H](CC(=O)O)C(=O)N[C@@](C)(Cc1ccccc1)C(=O)N[C@H](C(=O)N[C@@H](CCC(N)=O)C(=O)N[C@@H](Cc1c[nH]c2ccccc12)C(=O)N[C@H](C(=O)N[C@@H](C)C(=O)N[C@@H](CC(N)=O)C(N)=O)[C@@H](C)CC)C(C)C)C(=O)O)C(=O)O` [Peptide 103] (H-H[Aib]QGS[αMeF]TSDVSK[Aib]LDSK([PEG2-PEG2-γGlu-γGlu-Stearoyl])AAQD[αMeF]VQWIAN-NH2; N-terminus assumed), the “% Relative Potency Ratio” value in assay [1] (Table 6) was 220.8. Further, the concentration giving a half-maximal response (EC50) in assay [2] (setting [4]) amounted to 0.0594 nM.
As to `CC(C)C[C@H](NC(=O)[C@H](Cc1c[nH]c2ccccc12)NC(=O)[C@H](CCC(N)=O)NC(=O)[C@@H](NC(=O)[C@H](Cc1ccccc1)NC(=O)[C@H](CC(=O)O)NC(=O)[C@H](CCC(N)=O)NC(=O)[C@H](C)NC(=O)[C@H](CCCNC(=N)N)NC(=O)[C@H](CCCCNC(=O)COCCOCCNC(=O)COCCOCCNC(=O)CC[C@H](NC(=O)CCCCCCCCCCCCCCCCC(=O)O)C(=O)O)NC(=O)[C@@H](NC(=O)[C@H](CC(=O)O)NC(=O)[C@H](CC(C)C)NC(=O)[C@](C)(Cc1ccccc1)NC(=O)[C@H](CCCCN)NC(=O)[C@H](CO)NC(=O)[C@@H](NC(=O)[C@H](CC(=O)O)NC(=O)[C@H](CO)NC(=O)[C@@H](NC(=O)[C@H](Cc1ccccc1)NC(=O)[C@@H](NC(=O)CNC(=O)[C@H](CCC(N)=O)NC(=O)C(C)(C)NC(=O)[C@@H](N)Cc1c[nH]cn1)[C@@H](C)O)[C@@H](C)O)C(C)C)[C@@H](C)O)C(C)C)C(=O)N[C@@H](CC(C)C)C(=O)NC(C)(C)C(=O)N[C@H](C(=O)O)[C@@H](C)O` [Peptide 35] (H-H[Aib]QGTFTSDVSK[αMeF]LDTK([AEEA-AEEA-γGlu-C18 diacid])RAQDFVQWLL[Aib]T-OH; N-terminus assumed), the EC50 in assay [1] (setting [3]) came to 0.0837 nM; in assay [2] (setting [4]), 0.335 nM. Moreover, the “% Relative Potency Ratio” value in assay [1] (Table 6) is listed as 7.9.
Consider `CC[C@H](C)[C@H](NC(=O)[C@H](CO)NC(=O)[C@H](CCC(N)=O)NC(=O)[C@@H](NC(=O)[C@](C)(Cc1ccccc1)NC(=O)[C@H](CC(=O)O)NC(=O)[C@H](CCCCNC(=O)COCCOCCNC(=O)COCCOCCNC(=O)CC[C@H](NC(=O)CC[C@H](NC(=O)CCCCCCCCCCCCCCCCCCC(=O)O)C(=O)O)C(=O)O)NC(=O)[C@H](C)NC(=O)[C@H](C)NC(=O)[C@H](CCCNC(=N)N)NC(=O)[C@H](CO)NC(=O)[C@H](CC(=O)O)NC(=O)[C@H](CC(C)C)NC(=O)[C@](C)(Cc1ccccc1)NC(=O)[C@H](CCCCN)NC(=O)[C@H](CO)NC(=O)[C@@H](NC(=O)[C@H](CC(=O)O)NC(=O)[C@H](CO)NC(=O)[C@@H](NC(=O)[C@](C)(Cc1ccccc1)NC(=O)[C@H](CO)NC(=O)CNC(=O)[C@H](Cc1c[nH]cn1)NC(=O)C(C)(C)NC(=O)[C@@H](N)Cc1c[nH]cn1)[C@@H](C)O)C(C)C)C(C)C)C(=O)N[C@@H](C)C(=O)N[C@@H](CC(N)=O)C(=O)N[C@H](C(N)=O)[C@@H](C)O` [Peptide 244] (H-H[Aib]HGS[αMeF]TSDVSK[αMeF]LDSRAAK([AEEA-AEEA-γGlu-γGlu-C20 diacid])D[αMeF]VQSIANT-NH2), for which the EC50 in assay [1] (Table 7, peptides modified at position 20, cAMP in CHO hGLP-1R cells) came out at 0.143 nM; in assay [2] (Table 7, peptides modified at position 20, cAMP in CHO hGCGR cells), 0.42 nM. Moreover, in assay [1] (Table 7), the “% Relative Potency Ratio” value came out at 5.8.
`CC[C@H](C)[C@H](NC(=O)C(C)(C)NC(=O)[C@H](CCC(N)=O)NC(=O)[C@@H](NC(=O)[C@](C)(Cc1ccccc1)NC(=O)[C@H](CC(=O)O)NC(=O)[C@H](CCCNC(=N)N)NC(=O)[C@H](C)NC(=O)[C@H](C)NC(=O)[C@H](CCCCNC(=O)COCCOCCNC(=O)COCCOCCNC(=O)CC[C@H](NC(=O)CCCCCCCCCCCCCCCCC(=O)O)C(=O)O)NC(=O)[C@H](CO)NC(=O)[C@H](CC(=O)O)NC(=O)[C@H](CC(C)C)NC(=O)[C@](C)(Cc1ccccc1)NC(=O)[C@H](CCCCN)NC(=O)[C@H](CO)NC(=O)[C@@H](NC(=O)[C@H](CC(=O)O)NC(=O)[C@H](CO)NC(=O)[C@@H](NC(=O)[C@](C)(Cc1ccccc1)NC(=O)[C@H](CO)NC(=O)CNC(=O)[C@H](Cc1c[nH]cn1)NC(=O)C(C)(C)NC(=O)[C@@H](N)Cc1c[nH]cn1)[C@@H](C)O)C(C)C)C(C)C)C(=O)N[C@@H](C)C(=O)N[C@@H](CC(N)=O)C(=O)N[C@H](C(N)=O)[C@@H](C)O` [Peptide 13] (H-H[Aib]HGS[αMeF]TSDVSK[αMeF]LDSK([AEEA-AEEA-γGlu-C18 diacid])AARD[αMeF]VQ[Aib]IANT-NH2; N-terminus assumed): the EC50 in assay [1] (setting [3]) was found to be 0.0159 nM; in assay [2] (setting [4]) it was 0.044 nM. For the same compound, the “% Relative Potency Ratio” value in assay [1] (Table 6) was 5.5.
Taken in the same sequence, the figures for `CC(C)C[C@H](NC(=O)[C@H](Cc1c[nH]c2ccccc12)NC(=O)[C@H](CCC(N)=O)NC(=O)[C@@H](NC(=O)[C@H](Cc1ccccc1)NC(=O)[C@H](CC(=O)O)NC(=O)[C@H](CCCNC(=N)N)NC(=O)[C@H](C)NC(=O)[C@H](CCCNC(=N)N)NC(=O)[C@H](CCCCNC(=O)CC[C@H](NC(=O)CC[C@H](NC(=O)COCCOCCNC(=O)COCCOCCNC(=O)CC[C@H](NC(=O)CC[C@H](NC(=O)CCCCCCCCCCCCCCCCCCC(=O)O)C(=O)O)C(=O)O)C(=O)O)C(=O)O)NC(=O)[C@@H](NC(=O)[C@H](CC(=O)O)NC(=O)[C@H](CC(C)C)NC(=O)[C@](C)(Cc1ccccc1)NC(=O)[C@H](CCCCN)NC(=O)[C@H](CO)NC(=O)[C@@H](NC(=O)[C@H](CC(=O)O)NC(=O)[C@H](CO)NC(=O)[C@@H](NC(=O)[C@H](Cc1ccccc1)NC(=O)[C@@H](NC(=O)CNC(=O)[C@H](CCC(N)=O)NC(=O)C(C)(C)NC(=O)[C@@H](N)Cc1c[nH]cn1)[C@@H](C)O)[C@@H](C)O)C(C)C)[C@@H](C)O)C(C)C)C(=O)N[C@@H](CC(C)C)C(=O)N[C@@H](CCC(=O)O)C(=O)NC(C)(C)C(=O)NCC(=O)O` [Peptide 520] were 0.543 nM, 1.62 nM and 5.9.
